Measurements reported in the NIST ThermoML archive (doi:10.1021/je500093z).
± gives the expanded uncertainty stated by the source.

Legend:
[1] = for surface tension liquid-gas: Ring tensiometer; for viscosity / speed of sound / mass density: 101.33 kPa, Liquid; for speed of sound: Pulse-echo method; for mass density: Vibrating tube method
[2] = refractive index (Na D-line) (dimensionless); settings: 101.33 kPa, Liquid, Standard Abbe refractometry

SMILES	surface tension liquid-gas ([1]; 298.15 K)	viscosity ([1]; 298.15 K)	speed of sound ([1]; 298.15 K)	mass density ([1]; 298.15 K)	surface tension liquid-gas ([1]; 303.15 K)	viscosity ([1]; 303.15 K)	speed of sound ([1]; 303.15 K)	mass density ([1]; 303.15 K)	surface tension liquid-gas ([1]; 308.15 K)	viscosity ([1]; 308.15 K)	speed of sound ([1]; 308.15 K)	mass density ([1]; 308.15 K)	surface tension liquid-gas ([1]; 313.15 K)	viscosity ([1]; 313.15 K)	speed of sound ([1]; 313.15 K)	mass density ([1]; 313.15 K)	surface tension liquid-gas ([1]; 318.15 K)	viscosity ([1]; 318.15 K)	speed of sound ([1]; 318.15 K)	mass density ([1]; 318.15 K)	also measured
CCCCCCCC[n+]1ccn(C)c1.[Cl-] [1-methyl-3-octylimidazolium chloride]	32.5 ± 0.7 mN/m	13267 ± 4000 mPa·s	1687.2 ± 3.1 m/s	1010 ± 3 kg/m3	32.2 ± 0.7 mN/m	7770.4 ± 2100 mPa·s	1667.7 ± 3.1 m/s	1007 ± 3 kg/m3	31.9 ± 0.7 mN/m	4755.2 ± 1200 mPa·s	1646.1 ± 3.1 m/s	1004 ± 3 kg/m3	31.6 ± 0.7 mN/m	3006.7 ± 660 mPa·s	1619.6 ± 3.1 m/s	1001 ± 3 kg/m3	31.3 ± 0.7 mN/m	1967.6 ± 390 mPa·s	1597.1 ± 3.1 m/s	998 ± 3 kg/m3	surface tension liquid-gas ([1]; 323.15 K): 31 ± 0.6 mN/m; viscosity ([1]; 323.15 K): 1323.4 ± 230 mPa·s; speed of sound ([1]; 323.15 K): 1577.4 ± 3.1 m/s; mass density ([1]; 323.15 K): 995 ± 3 kg/m3; surface tension liquid-gas ([1]; 328.15 K): 30.7 ± 0.6 mN/m; viscosity ([1]; 328.15 K): 914.13 ± 140 mPa·s; speed of sound ([1]; 328.15 K): 1559.6 ± 3.1 m/s; mass density ([1]; 328.15 K): 992 ± 3 kg/m3; surface tension liquid-gas ([1]; 333.15 K): 30.4 ± 0.6 mN/m; viscosity ([1]; 333.15 K): 646.96 ± 90 mPa·s; speed of sound ([1]; 333.15 K): 1543 ± 3.1 m/s; mass density ([1]; 333.15 K): 989 ± 3 kg/m3; refractive index ([2]; 298.15 K): 1.5088 ± 0.001; refractive index ([2]; 303.15 K): 1.5085 ± 0.001; refractive index ([2]; 308.15 K): 1.5061 ± 0.001; refractive index ([2]; 313.15 K): 1.5058 ± 0.001; refractive index ([2]; 318.15 K): 1.5054 ± 0.001; refractive index ([2]; 323.15 K): 1.5048 ± 0.001; refractive index ([2]; 328.15 K): 1.5037 ± 0.001; refractive index ([2]; 333.15 K): 1.5029 ± 0.001
CCCCCCCC[n+]1ccn(C)c1.F[P-](F)(F)(F)(F)F [1-octyl-3-methylimidazolium hexafluorophosphate]	36.1 ± 1 mN/m	603.44 ± 82 mPa·s	1404.7 ± 5.1 m/s	1234 ± 8 kg/m3	35.9 ± 1 mN/m	430.88 ± 51 mPa·s	1390.3 ± 5.1 m/s	1231 ± 8 kg/m3	35.6 ± 1 mN/m	314.44 ± 32 mPa·s	1376.6 ± 5.1 m/s	1226 ± 8 kg/m3	35.3 ± 1 mN/m	234.24 ± 20 mPa·s	1363.6 ± 5.1 m/s	1223 ± 8 kg/m3	35.1 ± 1 mN/m	177.79 ± 13 mPa·s	1351 ± 5.1 m/s	1219 ± 8 kg/m3	surface tension liquid-gas ([1]; 323.15 K): 34.9 ± 1 mN/m; viscosity ([1]; 323.15 K): 137.24 ± 8.3 mPa·s; speed of sound ([1]; 323.15 K): 1338.9 ± 5.1 m/s; mass density ([1]; 323.15 K): 1215 ± 8 kg/m3; surface tension liquid-gas ([1]; 328.15 K): 34.6 ± 1 mN/m; viscosity ([1]; 328.15 K): 107.58 ± 5.2 mPa·s; speed of sound ([1]; 328.15 K): 1327 ± 5.1 m/s; mass density ([1]; 328.15 K): 1211 ± 8 kg/m3; surface tension liquid-gas ([1]; 333.15 K): 34.3 ± 1 mN/m; viscosity ([1]; 333.15 K): 85.58 ± 3.3 mPa·s; speed of sound ([1]; 333.15 K): 1315.5 ± 5.1 m/s; mass density ([1]; 333.15 K): 1208 ± 8 kg/m3; refractive index ([2]; 298.15 K): 1.4217 ± 0.0013; refractive index ([2]; 303.15 K): 1.4211 ± 0.0013; refractive index ([2]; 308.15 K): 1.4206 ± 0.0013; refractive index ([2]; 313.15 K): 1.4201 ± 0.0013; refractive index ([2]; 318.15 K): 1.4195 ± 0.0013; refractive index ([2]; 323.15 K): 1.4186 ± 0.0013; refractive index ([2]; 328.15 K): 1.4177 ± 0.0013; refractive index ([2]; 333.15 K): 1.4167 ± 0.0013
CC(C)C[P+](C)(CC(C)C)CC(C)C.Cc1ccc(S(=O)(=O)[O-])cc1 [triisobutylmethylphosphonium p-toluenesulfonate]	33.9 ± 1 mN/m	2132.4 ± 430 mPa·s	1628.8 ± 5.1 m/s	1068 ± 6 kg/m3	33.8 ± 1 mN/m	1363.2 ± 250 mPa·s	1610.6 ± 5.1 m/s	1065 ± 6 kg/m3	33.6 ± 1 mN/m	896.08 ± 140 mPa·s	1585.6 ± 5.1 m/s	1062 ± 6 kg/m3	33.4 ± 1 mN/m	606.71 ± 83 mPa·s	1567.6 ± 5.1 m/s	1059 ± 6 kg/m3	33.2 ± 1 mN/m	422.49 ± 50 mPa·s	1551.1 ± 5.1 m/s	1056 ± 6 kg/m3	surface tension liquid-gas ([1]; 323.15 K): 32.9 ± 0.9 mN/m; viscosity ([1]; 323.15 K): 302.17 ± 30 mPa·s; speed of sound ([1]; 323.15 K): 1535.7 ± 5.1 m/s; mass density ([1]; 323.15 K): 1053 ± 6 kg/m3; surface tension liquid-gas ([1]; 328.15 K): 32.8 ± 0.9 mN/m; viscosity ([1]; 328.15 K): 221.27 ± 19 mPa·s; speed of sound ([1]; 328.15 K): 1521.5 ± 5.1 m/s; mass density ([1]; 328.15 K): 1050 ± 6 kg/m3; surface tension liquid-gas ([1]; 333.15 K): 32.6 ± 0.9 mN/m; viscosity ([1]; 333.15 K): 165.53 ± 12 mPa·s; speed of sound ([1]; 333.15 K): 1508.3 ± 5.1 m/s; mass density ([1]; 333.15 K): 1047 ± 6 kg/m3; refractive index ([2]; 298.15 K): 1.5185 ± 0.0013; refractive index ([2]; 303.15 K): 1.5181 ± 0.0013; refractive index ([2]; 308.15 K): 1.5174 ± 0.0013; refractive index ([2]; 313.15 K): 1.516 ± 0.0013; refractive index ([2]; 318.15 K): 1.5151 ± 0.0013; refractive index ([2]; 323.15 K): 1.5144 ± 0.0013; refractive index ([2]; 328.15 K): 1.5123 ± 0.0013; refractive index ([2]; 333.15 K): 1.5119 ± 0.0013
